Key:
Type in all cases: cell-based
[1] = system: Staphylococcus aureus ATCC 6538; experiment: AOAC Official Method 961.02 Germicidal Spray Method, bacteria on glass carriers; conditions: 10 min contact
Source text: (§1) In this method, a series of glass slides (“carriers”) were inoculated with a representative test organism and the carriers were dried under ambient conditions. The dried organisms on the surface of the carrier were then sequentially treated with the composition of the present disclosure in the form of a spray product and were exposed for a pre-determined exposure time. After exposure, the carriers were sequentially transferred to a liquid subculture medium specifically selected to neutralize the composition of the present disclosure and to recover any surviving test organism. The carriers were incubated and visually examined for the presence or absence of growth. […] Required organisms for a disinfection claim include but are not limited to Staphylococcus aureus, Salmonella choleraesuis and Pseudomonas aeruginosa.
(§2) Method Adapted to the Preparation of Bacteria Cultures from −80° C. Freshly Recovered Stock. […] Added 10 μL of the thawed stock to a tube containing 10 mL synthetic broth and then vortexed to mix. Discarded the rest of cryovial stock. • Incubated the tube at 36 ±1° C. for 24 hours (h). Briefly vortexed the 24 h culture prior to transfer. For this final subculture step, inoculated two 20×150 mm tubes containing 10 mL synthetic broth with […] of the 24 h synthetic broth culture. • Incubated 48 h at 36±1° C. Using a Vortex-style mixer, mixed synthetic broth test cultures 3-4 seconds and let stand 10 minutes at room temperature before continuing. Removed the upper portion of each culture, leaving behind any debris or clumps, and transferred to a sterile tube. Titrated the culture by plating on synthetic agar plates, and diluted to 5×10^8 Colony Forming Units (CFU) per mL.
(§3) High volume screening studies were conducted in some cases where only 4 organism-inoculated carriers were treated at specified concentrations of CTAB. Vortex-mixed the inoculum periodically during inoculation of the carriers. • Immediately spread the inoculum uniformly over the majority of the carrier surface using a sterile loop. […] Covered dish immediately and repeated operation until 64 carriers had been prepared for the test. Once all of the carriers had been inoculated, placed in incubator at 37° C. for 40 minutes until dry.
(§4) • After the test organisms were dried on the surface of the carrier, each carrier was sprayed with the respective disinfection formulae 10 times in 10 seconds at a distance of 30 cm. • Treatment interval was timed. Ten (10) minutes after each carrier had been sprayed by the disinfectant, the excess liquid was removed and the carriers were transferred in a sequentially timed fashion into the culture tubes containing 20 ml neutralizer (Letheen Broth with 0.07% Lecithin/0.5% Tween 80/0.1% Sodium Thiosulfate) to neutralize the disinfectant. […] The percentage of the treated carriers showing growth after 48 hours was recorded.

[2] = system: Pseudomonas aeruginosa ATCC 15442; experiment: as above; conditions: for Pseudomonas aeruginosa Growth Rate: 10 min contact
Source text: as §1, §2, §3, §4

[3] = system: Trichophyton mentagrophytes ATCC 9533; experiment: AOAC Official Method 961.02 Germicidal Spray Method, fungal conidia on glass carriers; conditions: 10 min contact
Source text: as §1
(§5) The conidiospore suspension was macerated in a tissue grinder. The suspension was filtered through sterile cotton to remove the hyphae and hyphal fragments.
(§6) Vortex-mixed the inoculum periodically during inoculation of the carriers. • Immediately spread the inoculum uniformly over the majority of the carrier surface using a sterile loop. […] High volume screening studies were conducted in some cases where only 4 organism-inoculated carriers were treated at specified concentrations of CTAB. Once all of the carriers had been inoculated, the carriers were placed in an incubator at 37° C. for 40 minutes until completely dry.
(§7) • After drying, each carrier was sprayed with the respective disinfection formulae 10 times in 10 seconds at a distance of 30 cm. • Timed the treatment interval. Ten (10) minutes after each carrier had been exposed to the disinfectant, the excess liquid was removed and the carriers were transferred in a sequentially timed fashion into the culture tubes containing 20 ml neutralization broth (Letheen Broth with 0.07% Lecithin /0.5% Tween 80) to neutralize the disinfectant. • After the carriers were deposited in the respective culture tubes, the tubes were recapped and the cultures were thoroughly resuspended. • Incubated all neutralization tubes at 28 ±1° C. for 14 days. • After 14 days, the cultures within the tubes were examined for growth. The percentage of the treated carriers showing growth was recorded.

[4] = system: Aspergillus niger ATCC 6275; experiment: as above; conditions: 10 min contact
Source text: as §1, §5, §6, §7

[5] = system: Penicillium variable ATCC 32333; experiment: as above; conditions: 10 min contact
Source text: as §1, §5, §6, §7

[6] = system: Salmonella choleraesuis ATCC 10708; experiment: AOAC Official Method 961.02 Germicidal Spray Method, bacteria on glass carriers; conditions: 10 min contact
Description: All experiments were conducted according to the protocol outlined in AOAC Official Method 961.02 (Germicidal Spray Method), which is a carrier-based method used to evaluate disinfection efficacy of aerosol/pump-based spray products and liquid products for registration with regulatory agencies such as the U.S. EPA and Health Canada.
as §1
Method Adapted to the Preparation of Bacteria Cultures from −80° C. Freshly Recovered Stock. […]

CCCCCCCCCCCCCCCC[N+](C)(C)C.[Br-] [CTAB, cetyltrimethylammonium bromide]
ineffective: efficacy against Pseudomonas ([2]; CTAB on its own in water, 0.05%)
0%: Trichophyton mentagrophytes Growth Rate ([3]; CTAB 0.0010% in water (no CMC)) | Trichophyton mentagrophytes Growth Rate ([3]; CTAB 0.0100% in water (no CMC)) | Trichophyton mentagrophytes Growth Rate ([3]; CTAB 0.0500% in water (no CMC)) | Penicillium variable Growth Rate ([5]; CTAB 0.0100% in water (no CMC)) | Penicillium variable Growth Rate ([5]; CTAB 0.0500% in water (no CMC)) | Penicillium variable Growth Rate ([5]; CTAB 0.1000% in water (no CMC)) | Salmonella choleraesuis Growth Rate ([6]; CTAB 0.1000% in water (no CMC))
100%: Staphylococcus aureus Growth Rate ([1]; CTAB 0.0010% in water (no CMC)) | Staphylococcus aureus Growth Rate ([1]; CTAB 0.0100% in water (no CMC)) | Pseudomonas aeruginosa Growth Rate ([2]; CTAB 0.0010% in water (no CMC)) | Pseudomonas aeruginosa Growth Rate ([2]; CTAB 0.0100% in water (no CMC)) | Pseudomonas aeruginosa Growth Rate ([2]; CTAB 0.0500% in water (no CMC)) | Aspergillus niger Growth Rate ([4]; CTAB 0.0010% in water (no CMC)) | Aspergillus niger Growth Rate ([4]; CTAB 0.0100% in water (no CMC)) | Aspergillus niger Growth Rate ([4]; CTAB 0.0500% in water (no CMC)) | Aspergillus niger Growth Rate ([4]; CTAB 0.1000% in water (no CMC)) | Penicillium variable Growth Rate ([5]; CTAB 0.0010% in water (no CMC)) | Salmonella choleraesuis Growth Rate ([6]; CTAB 0.0100% in water (no CMC))
40%: Staphylococcus aureus Growth Rate ([1]; CTAB 0.0500% in water (no CMC)) | Staphylococcus aureus Growth Rate ([1]; CTAB 0.1000% in water (no CMC))

Reference: US20200245616A1, “A Disinfectant Composition with Extended Antimicrobial Effects” (Siamons International Inc., priority 2017, published 2020)
